Where “and” joins values, the source holds several entries; their conditions need not be identical. Equal values may be shown once. Where a SMILES comes first, the peptide text is derived from it. [ ]: non-standard residue; d: D form. Hyp = O=C(O)[C@@H]1C[C@@H](O)CN1
System: CCL4/MIP-1 beta
Experiment: Example 8 main study Luminex, LPS hPBMCs: CCL4/MIP-1 beta
Type: cell-based, human
Details: for LPS-induced CCL-4 (in words): at as low as 5 μM, LPS 5 ug/mL 24 hrs
Method: Human PBMCs were pretreated with YY-101, YDE-011, YDE-043 or reference compound; Xiidra® at various concentration (ranging from […] to 500 nM) for 2 h before stimulation. An equal volume of 0.5% DMSO was used as a vehicle control. Then, the cells were treated with LPS at 5 ug/ml, which was selected based on the pilot study. The supernatants from treated cells were harvested at 24 h and placed in a 96 well for Luminex cytokine & chemokine profiling using a Luminex 200 multiplex assay (Luminex; R&D system, USA).
The main study arm with triplicate wells per group in a 24-well plate: • 1. Blank • 2. PBMC: 0.5% DMSO • 3. PBMC+LPS (5 ug/ml) • 4. PBMC+YY-101 500 nM • 5. PBMC+YY-101 50 nM • 6. PBMC+YY-101 5 nM • 7. PBMC+YY-101 0.5 nM • 8. PBMC+LPS (5 ug/ml)+Xiidra® 500 nM • 9. PBMC+LPS (5 ug/ml)+Xiidra® 50 nM • 10. PBMC+LPS (5 ug/ml)+Xiidra® 5 nM • 11. PBMC+LPS (5 ug/ml)+Xiidra® 0.5 nM • 12. PBMC+LPS (5 ug/ml)+Xiidra® 0.05 nM • 13. PBMC+LPS (5 ug/ml)+Xiidra® 0.005 nM • 14. PBMC+LPS (5 ug/ml)+YY-101 500 nM • 15. PBMC+LPS (5 ug/ml)+YY-101 50 nM • 16. PBMC+LPS (5 ug/ml)+YY-101 5 nM • 17. PBMC+LPS (5 ug/ml)+YY-101 0.5 nM • 18. PBMC+LPS (5 ug/ml)+YY-101 0.05 nM • 19. PBMC+LPS (5 ug/ml)+YY-101 0.005 nM • 20. PBMC+LPS (5 ug/ml)+YDE-011 500 nM • 21. PBMC+LPS (5 ug/ml)+YDE-011 50 nM • 22. PBMC+LPS (5 ug/ml)+YDE-011 5 nM • 23. PBMC+LPS (5 ug/ml)+YDE-011 0.5 nM • 24. PBMC+LPS (5 ug/ml)+YDE-011 0.05 nM • 25. PBMC+LPS (5 ug/ml)+YDE-011 0.005 nM • 26. PBMC+LPS (5 ug/ml)+YDE-043 500 nM • 27. PBMC+LPS (5 ug/ml)+YDE-043 50 nM • 28. PBMC+LPS (5 ug/ml)+YDE-043 5 nM • 29. PBMC+LPS (5 ug/ml)+YDE-043 0.5 nM • 30. PBMC+LPS (5 ug/ml)+YDE-043 0.05 nM • 31. PBMC+LPS (5 ug/ml)+YDE-043 0.005 nM
Multiplex assay was used to measure 30 cytokines and chemokines. The 1:200 diluted cell supernatant and serial dilution of the standard were dispensed into a 96 well plate at 50 ul/well. Then, the pre-mixed cocktail of antibody-coated magnetic beads was dispensed at 50 ul/well and incubated at room temperature for 2 h in a horizontal orbital microplate shaker at 800±500 rpm. The beads were washed using a magnetic device to prevent loss. The biotin-antibody was dispensed in 50 ul of each well and incubated at room temperature for 1 h in a shaker at 800±500 rpm. After washing, streptavidin-PE was added at 50 ul/well and incubated at room temperature for 30 min in a shaker under the same conditions. Finally, after washing, wash buffer (100 ul/well) was added to the plate and incubated in a shaker for 2 min. The Luminex™ 200 setting were set according to the manufacturer's protocol. The data was calculated with a standard five-parameter logistic nonlinear regression analysis of the data (xPonent software 4.2, USA). Results were presented as concentration (ng/ml or pg/ml).

[1] = PBMC + LPS(5 ug/ml) + test article 0.005 nM, Mean
[2] = PBMC + LPS(5 ug/ml) + test article 0.005 nM, single replicates
[3] = PBMC + LPS(5 ug/ml) + test article 0.05 nM, Mean
[4] = PBMC + LPS(5 ug/ml) + test article 0.05 nM, single replicates
[5] = PBMC + LPS(5 ug/ml) + test article 0.5 nM, Mean
[6] = PBMC + LPS(5 ug/ml) + test article 0.5 nM, single replicates
[7] = PBMC + LPS(5 ug/ml) + test article 5 nM, Mean
[8] = PBMC + LPS(5 ug/ml) + test article 5 nM, single replicates
[9] = PBMC + LPS(5 ug/ml) + test article 50 nM, Mean
[10] = PBMC + LPS(5 ug/ml) + test article 50 nM, single replicates
[11] = PBMC + LPS(5 ug/ml) + test article 500 nM, Mean
[12] = PBMC + LPS(5 ug/ml) + test article 500 nM, single replicates
[13] = PBMC + test article 0.5 nM, no LPS, single replicates
[14] = PBMC + test article 5 nM, no LPS, single replicates
[15] = PBMC + test article 0.05 uM, no LPS, single replicates
[16] = PBMC + test article 50 nM, no LPS, single replicates
[17] = PBMC + test article 500 nM, no LPS, single replicates

SMILES	CCL4/MIP-1 beta Concentration [1]	CCL4/MIP-1 beta MFI [1]	CCL4/MIP-1 beta Concentration [2]	CCL4/MIP-1 beta MFI [2]	CCL4/MIP-1 beta Concentration [3]	CCL4/MIP-1 beta MFI [3]	CCL4/MIP-1 beta Concentration [4]	CCL4/MIP-1 beta MFI [4]	CCL4/MIP-1 beta Concentration [5]	CCL4/MIP-1 beta MFI [5]	CCL4/MIP-1 beta Concentration [6]	CCL4/MIP-1 beta MFI [6]	CCL4/MIP-1 beta Concentration [7]	CCL4/MIP-1 beta MFI [7]	CCL4/MIP-1 beta Concentration [8]	CCL4/MIP-1 beta MFI [8]	CCL4/MIP-1 beta Concentration [9]	CCL4/MIP-1 beta MFI [9]	CCL4/MIP-1 beta Concentration [10]	CCL4/MIP-1 beta MFI [10]	other results
CC(C)C[C@H](NC(=O)CNC(=O)[C@H](CC(C)C)NC(=O)[C@H](CCC(N)=O)NC(=O)CNC(=O)[C@@H]1C[C@@H](O)CN1)C(=O)N[C@@H](C)C(=O)NCC(=O)N1CCC[C@H]1C(=O)N[C@@H](CCCCN)C(=O)O [YDE-011] (H-[Hyp]GQLGLAGPK-OH)	20786.2 pg/mL	12.3	19701.2 pg/ml (2×) and 22956.0 pg/ml	12.0 (2×) and 13.0	22956.0 pg/mL	13.0	22956.0 pg/mL	13.0	22956.0 pg/mL	13.0	22956.0 pg/mL	13.0	16738.7 pg/mL	11.3	15257.5 pg/ml (2×) and 19701.2 pg/ml	11.0 (2×) and 12.0	23847.2 pg/mL	13.3	25629.7 pg/ml and 22956.0 pg/ml (2×)	14.0 and 13.0 (2×)	CCL4/MIP-1 beta Concentration [11]: 13759.1 pg/mL; CCL4/MIP-1 beta MFI [11]: 11.3; CCL4/MIP-1 beta Concentration [12]: 19701.2 pg/ml (2×) and 1874.9 pg/ml; CCL4/MIP-1 beta MFI [12]: 12.0 (2×) and 10.0; LPS-induced CCL-4 (in words): significantly reduced
CC(C)C[C@H](NC(=O)CNC(=O)[C@H](CC(=O)O)NC(=O)[C@H](CCC(N)=O)NC(=O)CNC(=O)[C@@H]1C[C@@H](O)CN1)C(=O)N[C@@H](C)C(=O)NCC(=O)N1CCC[C@H]1C(=O)N[C@@H](CCCCN)C(=O)O [YY-101] (H-[Hyp]GQDGLAGPK-OH; N-terminus and C-terminus assumed)	21677.4 pg/mL	12.7	25629.7 pg/ml and 19701.2 pg/ml (2×)	14.0 and 12.0 (2×)	21011.4 pg/mL	12.5	25629.7 pg/mL and 17703.4 pg/mL and 19701.2 pg/mL	14.0 and 11.5 and 12.0	21011.4 pg/mL	12.5	17703.4 pg/mL and 25629.7 pg/mL and 19701.2 pg/mL	11.5 and 14.0 and 12.0	16072.8 pg/mL	11.2	17703.4 pg/ml and 15257.5 pg/ml (2×)	11.5 and 11.0 (2×)	16738.7 pg/mL	11.3	15257.5 pg/ml (2×) and 19701.2 pg/ml	11.0 (2×) and 12.0	CCL4/MIP-1 beta Concentration [11]: 18220.0 pg/mL; CCL4/MIP-1 beta MFI [11]: 11.7; CCL4/MIP-1 beta Concentration [12]: 15257.5 pg/ml and 19701.2 pg/ml (2×); CCL4/MIP-1 beta MFI [12]: 11.0 and 12.0 (2×); CCL4/MIP-1 beta MFI (PBMC + test article 0.5 nM, no LPS, Mean): 6.0; CCL4/MIP-1 beta Concentration [13]: <148.02 pg/mL; CCL4/MIP-1 beta MFI [13]: 6.0; CCL4/MIP-1 beta MFI (PBMC + test article 5 nM, no LPS, Mean): 6.5; CCL4/MIP-1 beta Concentration [14]: <148.02 pg/mL; CCL4/MIP-1 beta MFI [14]: 7.0 and 6.0; CCL4/MIP-1 beta MFI (PBMC + test article 0.05 uM, no LPS, Mean): 5.5; CCL4/MIP-1 beta Concentration [15]: <148.02 pg/mL; CCL4/MIP-1 beta MFI [15]: 6.0 and 5.0; CCL4/MIP-1 beta MFI (PBMC + test article 50 nM, no LPS, Mean): 7.5; CCL4/MIP-1 beta Concentration [16]: <148.02 pg/mL; CCL4/MIP-1 beta MFI [16]: 8.0 and 7.0; CCL4/MIP-1 beta MFI (PBMC + test article 500 nM, no LPS, Mean): 6.5; CCL4/MIP-1 beta Concentration [17]: <148.02 pg/mL; CCL4/MIP-1 beta MFI [17]: 6.0 and 7.0; LPS-induced CCL-4 (in words): significantly reduced
CC(C)C[C@H](NC(=O)[C@H](CCC(N)=O)NC(=O)CNC(=O)[C@@H]1C[C@@H](O)CN1)C(=O)NCC(=O)O [YDE-043] (H-[Hyp]GQLG-OH; N-terminus and C-terminus assumed)	24223.5 pg/mL	13.7	22956.0 pg/mL and 30013.2 pg/mL and 19701.2 pg/mL	13.0 and 16.0 and 12.0	19701.2 pg/mL	12.0	19701.2 pg/mL	12.0	21871.1 pg/mL	12.7	22956.0 pg/ml (2×) and 19701.2 pg/ml	13.0 (2×) and 12.0	20786.2 pg/mL	12.3	19701.2 pg/ml (2×) and 22956.0 pg/ml	12.0 (2×) and 13.0	21205.1 pg/mL	12.5	22956.0 pg/ml (2×) and 17703.4 pg/ml	13.0 (2×) and 11.5	CCL4/MIP-1 beta Concentration [11]: 22762.3 pg/mL; CCL4/MIP-1 beta MFI [11]: 13.0; CCL4/MIP-1 beta Concentration [12]: 25629.7 pg/mL and 22956.0 pg/mL and 19701.2 pg/mL; CCL4/MIP-1 beta MFI [12]: 14.0 and 13.0 and 12.0; LPS-induced CCL-4 (in words): significantly reduced
